For the experiment, the target named is Adenylate kinase isoenzyme 1 (Homo sapiens) (UniProt P00568). As to the kind of experiment: AK1 binders by thermal shift, biophysical, DSF, SYPRO orange (AID 379). The settings on record: purified AK1, DSF SYPRO orange thermal shift; at 5 µM; protein 1 µM; buffer 10 mM HEPES; active compounds read high.

The results in this text go back to PubChem BioAssay AID379.

Chain of Adenylate kinase isoenzyme 1 (Homo sapiens) (P00568 whole entry, looked up): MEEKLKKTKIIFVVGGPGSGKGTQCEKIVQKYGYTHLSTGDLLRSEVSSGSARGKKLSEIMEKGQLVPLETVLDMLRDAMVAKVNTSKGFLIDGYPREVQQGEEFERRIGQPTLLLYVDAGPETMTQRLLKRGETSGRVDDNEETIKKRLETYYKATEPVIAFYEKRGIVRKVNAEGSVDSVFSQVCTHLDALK

Regarding `Nc1ncnc2c1ncn2[C@@H]1O[C@H](COP(=O)(O)OP(=O)(O)OP(=O)(O)OP(=O)(O)OP(=O)(O)OC[C@H]2O[C@@H](n3cnc4c(N)ncnc43)[C@H](O)[C@@H]2O)[C@@H](O)[C@H]1O`, the Tm shift is 15.4 Celsius.
